{"source": "ChEMBL document CHEMBL1153435", "about": "“Harnessing nature's insight: design of aspartyl protease inhibitors from treatment of drug-resistant HIV to Alzheimer's disease” (J Med Chem, 2009)", "key": {"Protease": {"target": "Protease (Human immunodeficiency virus 1, UniProt Q9YQ12)", "sequence (Q9YQ12 whole entry)": "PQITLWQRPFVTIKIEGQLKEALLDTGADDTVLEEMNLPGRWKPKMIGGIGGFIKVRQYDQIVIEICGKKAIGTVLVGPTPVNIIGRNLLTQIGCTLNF", "test": "Inhibition of HIV1 protease"}, "[1]": {"test_system": "Human immunodeficiency virus 1", "test": "Antiviral activity against HIV1 assessed as inhibition of viral replication", "format": "functional, organism-based", "settings": "for IC95: read-out: CIC95"}, "Beta-secretase 1": {"target": "Beta-secretase 1 (Homo sapiens, UniProt P56817)", "sequence (P56817 whole entry)": "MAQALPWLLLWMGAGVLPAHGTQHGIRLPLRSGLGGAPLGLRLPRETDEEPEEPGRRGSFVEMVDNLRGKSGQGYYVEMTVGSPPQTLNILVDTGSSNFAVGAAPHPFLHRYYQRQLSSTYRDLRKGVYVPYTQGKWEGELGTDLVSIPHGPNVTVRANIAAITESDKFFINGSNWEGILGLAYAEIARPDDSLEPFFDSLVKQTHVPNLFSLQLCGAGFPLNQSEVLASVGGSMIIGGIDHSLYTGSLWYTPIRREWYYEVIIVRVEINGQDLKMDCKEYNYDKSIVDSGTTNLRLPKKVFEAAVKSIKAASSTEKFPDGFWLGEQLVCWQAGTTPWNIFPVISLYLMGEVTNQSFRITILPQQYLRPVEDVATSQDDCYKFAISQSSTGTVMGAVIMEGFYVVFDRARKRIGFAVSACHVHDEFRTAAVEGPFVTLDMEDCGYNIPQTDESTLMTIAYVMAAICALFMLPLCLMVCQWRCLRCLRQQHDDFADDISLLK", "test": "Inhibition of recombinant memapsin 2"}, "[2]": {"test_system": "Human immunodeficiency virus 1", "test": "Antiviral activity against laboratory HIV1 strains and primary clinical isolates"}, "[3]": {"target": "Protease (Human immunodeficiency virus 1) (UniProt Q9YQ12)", "sequence (Q9YQ12 as listed by the source)": "as the sequence (Q9YQ12 whole entry) above"}, "[4]": {"test": "Oral bioavailability in HIV1 infected patient at 600 mg administered as single dose", "format": "ADME, organism-based", "settings": "human, in vivo"}, "[5]": {"test_system": "Human immunodeficiency virus 1", "test": "Antiviral activity against protease inhibitor resistant HIV1 isolates", "format": "functional, organism-based"}, "[6]": {"settings": "read-out: ID50 (the source's name)"}}, "note": "*1 amine or outer side, *2 acyl side, *3 side chain or, on linkers, in order; H or OH if unused. Where a SMILES comes first, the peptide text is derived from it. [ ]: non-standard residue; d: D form. LeuΨ(S-CHOHCH2)Ala = CC(C)C[C@H](N[*:1])[C@@H](O)C[C@@H](C)C(=O)[*:2]"}
{"smiles": "COc1ccc(S(=O)(=O)N(CC(C)C)C[C@@H](O)[C@H](Cc2ccccc2)NC(=O)O[C@H]2CC[C@H]3OCO[C@@H]23)cc1", "values": [{"measurement": "IC50", "setting": "Protease", "value": 3.8, "unit": "nM"}, {"measurement": "Ki", "setting": "Protease", "value": 0.11, "unit": "nM"}]}
{"smiles": "CC(C)CN(C[C@@H](O)[C@H](Cc1ccccc1)NC(=O)O[C@H]1CO[C@H]2OCC[C@H]21)S(=O)(=O)c1ccc2c(c1)OCO2", "values": [{"measurement": "IC50", "setting": "[1]; read-out: IC50", "value": 1.4, "unit": "nM"}]}
{"smiles": "COc1ccc(S(=O)(=O)N(CC(C)C)C[C@@H](O)[C@H](Cc2ccccc2)NC(=O)O[C@H]2COC3OCCC[C@@H]32)cc1", "note": "(single isomer, unassigned)", "values": [{"measurement": "Ki", "setting": "Protease", "value": 2.2, "unit": "nM"}, {"measurement": "IC50", "setting": "[1]; [6]", "value": 4.5, "unit": "nM"}]}
{"smiles": "COc1ccc(S(=O)(=O)N(CC(C)C)C[C@@H](O)[C@H](Cc2ccccc2)NC(=O)[C@@H]2CCC[C@]3(CCCO3)C2)cc1", "values": [{"measurement": "Ki", "setting": "Protease", "value": 2.9, "unit": "nM"}]}
{"smiles": "COc1ccc(S(=O)(=O)N(CC(C)C)C[C@@H](O)[C@H](Cc2ccccc2)NC(=O)O[C@H]2CO[C@@H]3OCC[C@@H]32)cc1", "values": [{"measurement": "IC50", "setting": "[1]; read-out: IC50", "value": 4.1, "unit": "nM"}]}
{"smiles": "CC(C)C[C@H](NC(=O)[C@H](CC(N)=O)NC(=O)[C@@H](N)C(C)C)[C@@H](O)C[C@@H](C)C(=O)N[C@@H](C)C(=O)N[C@@H](CCC(=O)O)C(=O)N[C@@H](Cc1ccccc1)C(=O)O", "note": "(H-VN[LeuΨ(S-CHOHCH2)Ala]AEF-OH)", "values": [{"measurement": "Ki", "setting": "Beta-secretase 1", "value": 6.8, "unit": "nM"}]}
{"smiles": "COc1ccc(S(=O)(=O)N(C[C@@H]2CCC(=O)N2)C[C@@H](O)[C@H](Cc2ccccc2)NC(=O)O[C@H]2CC[C@H]3OCC[C@@H]23)cc1", "values": [{"measurement": "IC50", "setting": "Protease", "value": 28, "unit": "nM"}, {"measurement": "Ki", "setting": "Protease", "value": 0.16, "unit": "nM"}]}
{"smiles": "COc1ccc(S(=O)(=O)N(CC(C)C)C[C@@H](O)[C@H](Cc2ccccc2)NC(=O)O[C@H]2CC[C@]3(CCCO3)C2)cc1", "values": [{"measurement": "Ki", "setting": "Protease", "value": 3.7, "unit": "nM"}, {"measurement": "IC50", "setting": "[1]; [6]", "value": 265, "unit": "nM"}]}
{"smiles": "CSCC[C@H](NC(=O)[C@@H](NC(=O)OC(C)(C)C)C(C)C)C(=O)N[C@@H](CC(C)C)[C@@H](O)C[C@@H](C)C(=O)N[C@H](C(=O)NCC(C)C)C(C)C", "values": [{"measurement": "Ki", "setting": "Beta-secretase 1", "value": 0.8, "unit": "nM"}]}
{"smiles": "CC(C)(C)NC(=O)[C@@H]1C[C@@H]2CCCC[C@@H]2CN1C[C@@H](O)[C@H](Cc1ccccc1)NC(=O)[C@@H](NC(=O)c1ccc2ccccc2n1)[C@H]1CCOC1", "values": [{"measurement": "IC50", "setting": "Protease", "value": 0.05, "unit": "nM"}, {"measurement": "IC95", "setting": "[1]", "value": 8, "unit": "nM"}]}
{"smiles": "COc1ccc(S(=O)(=O)N(CC(C)C)C[C@@H](O)[C@H](Cc2ccccc2)NC(=O)O[C@@H]2CCOCOC2)cc1", "values": [{"measurement": "IC50", "setting": "Protease", "value": 5, "unit": "nM"}]}
{"smiles": "CC(C)(C)NC(=O)[C@@H]1C[C@@H]2CCCC[C@@H]2CN1C[C@@H](O)[C@H](Cc1ccccc1)NC(=O)O[C@H]1CCOC1", "values": [{"measurement": "IC50", "setting": "Protease", "value": 160, "unit": "nM"}, {"measurement": "IC95", "setting": "[1]", "value": 800, "unit": "nM"}]}
{"smiles": "CC(C)(C)NC(=O)[C@@H]1C[C@@H]2CCCC[C@@H]2CN1C[C@@H](O)[C@H](Cc1ccccc1)NC(=O)O[C@H]1CC[C@H]2OCC[C@@H]12", "values": [{"measurement": "IC50", "setting": "Protease", "value": 17, "unit": "nM"}]}
{"smiles": "O=C(N[C@@H](Cc1ccccc1)[C@@H](O)C[C@@H](Cc1ccccc1)C(=O)N[C@H]1c2ccccc2C[C@H]1O)OC1CCCC1", "values": [{"measurement": "IC50", "setting": "Protease", "value": 0.3, "unit": "nM"}, {"measurement": "IC95", "setting": "[1]", "value": 400, "unit": "nM"}]}
{"smiles": "O=C(N[C@@H](Cc1ccccc1)[C@@H](O)C[C@@H](Cc1ccccc1)C(=O)N[C@H]1c2ccccc2C[C@H]1O)O[C@H]1CCOC1", "values": [{"measurement": "IC50", "setting": "Protease", "value": "< 0.03", "unit": "nM"}, {"measurement": "IC95", "setting": "[1]", "value": 3, "unit": "nM"}]}
{"smiles": "CC(C)(C)NC(=O)[C@@H]1C[C@@H]2CCCC[C@@H]2CN1C[C@@H](O)[C@H](Cc1ccccc1)NC(=O)[C@H](CC(N)=O)NC(=O)c1ccc2ccccc2n1", "values": [{"measurement": "IC50", "setting": "[1]; [6]", "value": 18, "unit": "nM"}]}
{"smiles": "COc1ccc(S(=O)(=O)N(CC(C)C)C[C@@H](O)[C@H](Cc2ccccc2)NC(=O)[C@@H]2CCCS(=O)(=O)C2)cc1", "values": [{"measurement": "Ki", "setting": "Protease", "value": 1.4, "unit": "nM"}, {"measurement": "IC50", "setting": "[1]; [6]", "value": 17, "unit": "nM"}]}
{"smiles": "CC(C)CN(C[C@@H](O)[C@H](Cc1ccccc1)NC(=O)O[C@H]1CO[C@H]2OCC[C@H]21)S(=O)(=O)c1ccc(N)cc1", "values": [{"measurement": "IC50", "setting": "[1]; read-out: IC50", "value": 4.1, "unit": "nM"}, {"measurement": "IC90", "setting": "[2]", "value": 9, "unit": "nM"}]}
{"smiles": "CC(C)CN(C[C@@H](O)[C@H](Cc1ccccc1)NC(=O)O[C@H]1CCOC1)S(=O)(=O)c1ccc(N)cc1", "values": [{"measurement": "Ki", "setting": "Protease", "value": 0.6, "unit": "nM"}, {"measurement": "IC90", "setting": "[3]", "value": 40, "unit": "nM"}]}
{"smiles": "CC(C)c1nc(CN(C)C(=O)N[C@H](C(=O)N[C@@H](Cc2ccccc2)C[C@H](O)[C@H](Cc2ccccc2)NC(=O)OCc2cncs2)C(C)C)cs1", "note": "[RITONAVIR]", "values": [{"measurement": "bioavailability", "setting": "[4]", "value": 37, "unit": "%"}]}
{"smiles": "COc1ccc(S(=O)(=O)N(CC(C)C)C[C@@H](O)[C@H](Cc2ccccc2)NC(=O)O[C@H]2CO[C@H]3OCC[C@H]32)cc1", "values": [{"measurement": "IC50", "setting": "[5]", "value": 0.5, "unit": "nM"}]}
{"smiles": "CC(C)(C)NC(=O)[C@@H]1C[C@@H]2CCCC[C@@H]2CN1C[C@@H](O)[C@H](Cc1ccccc1)NC(=O)O[C@H]1CO[C@H]2OCC[C@H]21", "values": [{"measurement": "IC95", "setting": "[1]", "value": 46, "unit": "nM"}]}
{"smiles": "CC(C)(C)NC(=O)[C@@H]1C[C@@H]2CCCC[C@@H]2CN1C[C@@H](O)[C@H](Cc1ccccc1)NC(=O)O[C@H]1CCS(=O)(=O)C1", "values": [{"measurement": "IC50", "setting": "Protease", "value": 76, "unit": "nM"}, {"measurement": "IC95", "setting": "[1]", "value": 350, "unit": "nM"}]}
{"smiles": "COc1ccc(S(=O)(=O)N(CC(C)C)C[C@@H](O)[C@H](Cc2ccccc2)NC(=O)O[C@H]2CCS(=O)(=O)C2)cc1", "values": [{"measurement": "Ki", "setting": "Protease", "value": 1.4, "unit": "nM"}, {"measurement": "IC50", "setting": "[1]; [6]", "value": 19, "unit": "nM"}]}
{"smiles": "COc1ccc(S(=O)(=O)N(CC(C)C)C[C@@H](O)[C@H](Cc2ccccc2)NC(=O)[C@@H]2CCO[C@]3(CCCO3)C2)cc1", "values": [{"measurement": "Ki", "setting": "Protease", "value": 3.9, "unit": "nM"}, {"measurement": "IC50", "setting": "[1]; [6]", "value": 1200, "unit": "nM"}]}
